Data published in patent publication US10556860B2, “hTERT modulators and methods of use” (Arizona Board of Regents on Behalf of the University of …, priority 2015, dated 2020).

Columns and labels:
[1] = tested on: BCL2 mRNA in WT and G146A melanoma cells; test: qPCR of BCL2 mRNA in melanoma cells; type: cell-based, human; details: 72 h
Experimental: (§1) Cell cultures. MCF7 and melanoma (UACC 383) cells were cultured in media of RPMI-1640 with 10% FBS and 1% penicillin/streptomycin. For melanoma cells UACC 2512, UACC 3090, UACC 1729, and UACC 2528, 20% FBS was included in the RPMI media instead of 10% FBS. Cells were incubated at 37° C. with 5% CO2.
(§2) qPCR. MCF7 and melanoma cells were treated with GTC365 and BRACO-19 for 72 h. Total RNA was extracted using an RNeasy mini-prep kit (Qiagen) and quantitated by measuring absorbance at 260 nm. cDNA was synthesized using a Takara PrimeScript™ RT Reagent Kit with gDNA eraser and then used as a template for qPCR. The qPCR was performed using Kapa Probe Fast qPCR Master Mix with ABI Taqman probes of hTERT (Hs00972656_m1), BCL2 (HS00608023_m1, FAM-labeled) or MYC (Hs00153408_m1), and GAPDH (Hs02758991_g1, VIC-labeled). The Ct values were measured by running Rotor-Gene Q, and the relative quantity of hTERT, BCL2, and MYC mRNA was obtained compared to GAPDH as an internal control.
(§3) To determine the cellular effect of GTC365 on proliferation as well as suppression of the activation of hTERT by G124A, G124/125A, G138/139A, and G146A mutants, melanoma cell lines were used alongside a WT cell line. All mutants increased the mRNA level of hTERT, compared to WT melanoma cells, in the 6.6-34-fold range. […]

[2] = tested on: G138/139A 5-12 G-quadruplex; test: CD kinetics, temperature-jump, G138/139A; type: biochemical, human; details: 2 equiv
Experimental: FIGS. 10A and 10B are a set of graphs showing (A) comparison of kinetics of initial folding rate of the WT 5-12 G-quadruplex with GTC365 and BRACO-19 by the temperature-jump method. (B) Enhanced initial folding rate of the 5-12 G-quadruplexes carrying different hTERT mutants by GTC365. The time-course CD signal of preheated oligo with compound or DMSO in a buffer containing 10 mM Tris-HCl (pH 7.5) and 5 mM KCl was monitored at 262 nm and 25° C.
For the kinetics analysis using the temperature-jump method, theoligo in a buffer containing 10 mM Tris-HCl (pH 7.5) was heated forl min at 95° C., and then a mixture of KCl and compound was addedand incubated for 1 min. Meanwhile, the CD cuvette was also heatedat 95° C. As soon as the sample in the CD cuvette at the hightemperature was placed in the CD chamber, a time-dependent CDsignal at 262 nm was recorded immediately. The initial folding ratewas determined by one-phase association curve fitting (eq 1) of thekinetics curve using GraphPad Prism 5: Y=Y0+(Plateau−Y0)*(1−e^−kx) (1) where Y is the CD signal at any time point x, Y0 is the Y value whentime (x) is zero, plateau is the Y value at infinite time, and k is the rateconstant.
To evaluate the comparative effects of GTC365 relative to BRACO-19 on the cooperative folding process, we carried out two different experiments. […]

[3] = tested on: hTERT mRNA in melanoma cells carrying WT, G124A, G124/125A, G138/139A and G146A; test: qPCR of hTERT mRNA in melanoma cells (WT and mutants); type: cell-based, human; details: WT and all mutant melanoma cells, 72 h, 1 μM
Experimental: as §1, §2, §3

N=C(N)NCCCS(=O)(=O)Nc1ccc(Nc2c3ccccc3nc3cc([N+](=O)[O-])ccc23)cc1 [GTC365]
mRNA level of BCL2 [1]: decreased
effect on initial folding rate [2]: insignificant
decrease in the mRNA level of hTERT [3]: 25%
